The text below walks through data of patent US20250320213A1, “Nitrogen-Containing Heterocyclic Compounds” (Pfizer Inc., priority 2024, published 2025).

Molecules are shown by their SMILES.

In the first assay the target is T1, STAT6 (Homo sapiens, UniProt P42226).
T1 construct: stably transfected HaCaT keratinocyte cell line, which expresses NanoLuc luciferase reporter gene under the transcriptional control of the STAT6 responsive promoter; endogenous in cells; host or cells: HaCaT keratinocyte reporter cell line (stably transfected with a NanoLuc reporter)
T1 sequence (P42226 1-847): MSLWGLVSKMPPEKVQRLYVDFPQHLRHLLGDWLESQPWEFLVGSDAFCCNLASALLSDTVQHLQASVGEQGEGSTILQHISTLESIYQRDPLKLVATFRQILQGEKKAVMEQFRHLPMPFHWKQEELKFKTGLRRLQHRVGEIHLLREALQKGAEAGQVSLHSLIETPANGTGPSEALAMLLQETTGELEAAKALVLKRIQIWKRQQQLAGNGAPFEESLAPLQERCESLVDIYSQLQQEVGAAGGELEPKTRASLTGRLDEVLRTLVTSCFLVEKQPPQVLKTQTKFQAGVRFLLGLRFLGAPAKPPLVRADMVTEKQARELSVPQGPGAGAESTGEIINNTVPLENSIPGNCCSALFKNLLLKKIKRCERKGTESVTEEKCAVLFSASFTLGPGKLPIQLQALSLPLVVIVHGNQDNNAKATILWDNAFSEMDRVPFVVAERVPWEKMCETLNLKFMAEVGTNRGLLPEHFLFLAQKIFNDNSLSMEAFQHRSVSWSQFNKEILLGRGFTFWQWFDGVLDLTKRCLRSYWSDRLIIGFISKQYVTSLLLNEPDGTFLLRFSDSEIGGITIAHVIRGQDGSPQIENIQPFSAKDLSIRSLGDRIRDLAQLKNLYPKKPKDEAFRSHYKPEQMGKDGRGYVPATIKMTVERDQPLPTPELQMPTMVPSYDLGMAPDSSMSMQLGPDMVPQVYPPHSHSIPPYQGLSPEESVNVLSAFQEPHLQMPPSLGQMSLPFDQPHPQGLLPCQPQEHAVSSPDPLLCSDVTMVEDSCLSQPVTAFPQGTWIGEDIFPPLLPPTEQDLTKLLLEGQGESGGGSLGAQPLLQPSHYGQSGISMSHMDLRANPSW
The experiment in a line: STAT6 Reporter Luciferase Assay (IL-13 stimulated HaCaT keratinocyte NanoLuc reporter cells). Type of assay: cell-based. The settings on record: IL-13 stimulated HaCaT STAT6 NanoLuc reporter cells; read-out: Reporter EC50. As to the method:
Pharmacological measurements of STAT6 transcriptional activity through the IL-13-IL-13 receptor/IL-4 receptor pathway were made with a stably transfected HaCaT keratinocyte cell line, which expresses NanoLuc luciferase reporter gene under the transcriptional control of the STAT6 responsive promoter for IL-13Ra2. The readout of the STAT6 activity utilized Promega Nano-Glo Luciferase assay kit.
The reporter cells were cultured in a growth media comprised of DMEM High Glucose, no calcium and no glutamine, 10% heat inactivated fetal bovine serum (HI FBS), 1% 100× Glutamax, and 100 U/mL Penicillin-Streptomycin (units of penicillin in 1 mL of streptomycin). Seven thousand cells were plated in 25 microliter (μL) per well in a 384-well, white bottom, tissue culture plate. Cells were cultured overnight at 37° C. The next day, test compounds (solubilized and serially diluted in DMSO, in an 11 point, 4-fold dilution series in duplicate) were spotted, 60 nanoliters (nL) per well, into a 384 well v-bottom polypropylene plate. Thirty μL per well of 37° C. dosing media (Dulbecco's modified eagle medium (DMEM) High Glucose, no calcium and no glutamine with 2% HI FBS) was added to the compound plate. Growth media was removed from the cell plate, and the cells were washed with DPBS. Twenty μL per well of compounds diluted in dosing media were transferred from the compound plate to the cell plate and the compounds were further diluted with an additional 15 μL of dosing media in the cell plate: the cell plate was incubated for two hours at 37° C. After two hours, STAT6 activity was stimulated with the addition of 5 μL per well of IL-13 (R&D Systems) in dosing media with a final concentration of 0.12 nM IL13. Cells were incubated at 37° C. for 4 hours to allow for reporter gene expression, then all media was removed from the plate. The cell plates were treated with assay buffer and Luciferase substrate from Nano-Glo Luciferase Assay Kit for 15 min and then measured for luminescence on an EnVision 2105 multilabel reader (PerkinElmer).
The term EC50 denotes the concentration giving half of the maximal effect. `CC(C)n1nc(C(=O)NCc2ccc(NC(=O)N3CCN(C)CC3)cc2)c2c1C(C(F)(F)F)CN(c1ccc(C(=O)N(C)C)cc1)C2` (single isomer, unassigned) [Example 702, rel-(R or S)-5-(4-(dimethylcarbamoyl)phenyl)-1-isopropyl-N-(4-(4-methylpiperazine-1-carboxamido)benzyl)-7-(trifluoromethyl)-4,5,6,7-tetrahydro-1H-pyrazolo[4,3-c]pyridine-3-carboxamide]: the EC50 was found to be 10 nM.
Same read-out and setting: with `CC(C)n1nc(C(=O)NCc2ccc(NC(=O)N3CCN(C)CC3)cc2)c2c1C(C(F)(F)F)CN(c1ccc(C(=O)N(C)C)cc1)C2` (single isomer, unassigned) [Example 705, rel-(R or S)-5-(4-(dimethylcarbamoyl)phenyl)-1-isopropyl-N-(4-(4-methylpiperazine-1-carboxamido)benzyl)-7-(trifluoromethyl)-4,5,6,7-tetrahydro-1H-pyrazolo[4,3-c]pyridine-3-carboxamide] the figure was 0.2 nM.
Same read-out and setting: then `CCn1nc2c(c1C(=O)NCc1ccc(NC(=O)N(C)C)cc1)CN(c1ccc(C(=O)N(C)C)cn1)[C@@H](C)[C@@H]2C` (stereo in doubt) [Example 316, rel-(6S,7S)-5-(5-(dimethylcarbamoyl)pyridin-2-yl)-N-(4-(3,3-dimethylureido)benzyl)-2-ethyl-6,7-dimethyl-4,5,6,7-tetrahydro-2H-pyrazolo[4,3-c]pyridine-3-carboxamide], with 3770 nM; and `CCn1nc2c(c1C(=O)NCc1ccc(NC(=O)N(C)C)cc1)CN(c1ccc(C(=O)N(C)C)cn1)[C@H](C)[C@H]2C` (stereo in doubt) [Example 317, rel-(6R,7R)-5-(5-(dimethylcarbamoyl)pyridin-2-yl)-N-(4-(3,3-dimethylureido)benzyl)-2-ethyl-6,7-dimethyl-4,5,6,7-tetrahydro-2H-pyrazolo[4,3-c]pyridine-3-carboxamide], with 355 nM; and `CC(C)n1nc(C(=O)NCc2ccc(NC(=O)N3CC4CC4C3)cc2)c2c1CCN(c1ccc(C(=O)N(C)C)cn1)C2` (centres unmarked) [Example 186, N-(4-(3-azabicyclo[3.1.0]hexane-3-carboxamido)benzyl)-5-(5-(dimethylcarbamoyl)pyridin-2-yl)-1-isopropyl-4,5,6,7-tetrahydro-1H-pyrazolo[4,3-c]pyridine-3-carboxamide], with 10 nM.
Take `CC(=O)N[C@H]1CCN(C(=O)c2ccc(N3CCc4c(c(C(=O)NCc5ccc(NC(=O)N(C)C)cc5)nn4C(C)C)C3)nc2)C1` [Example 193, (S)-5-(5-(3-Acetamidopyrrolidine-1-carbonyl)pyridin-2-yl)-N-(4-(3,3-dimethylureido)benzyl)-1-isopropyl-4,5,6,7-tetrahydro-1H-pyrazolo[4,3-c]pyridine-3-carboxamide]: the concentration for a half-maximal effect (EC50) was determined as 372 nM.
On the same count and under the same terms, then `CC(C)n1nc(C(=O)NCc2ccc(NC(=O)N(C)C)cc2)c2c1CCN(c1ccc(C(=O)N3CCCOCC3)cn1)C2` [Example 195, 5-(5-(1,4-oxazepane-4-carbonyl)pyridin-2-yl)-N-(4-(3,3-dimethylureido)benzyl)-1-isopropyl-4,5,6,7-tetrahydro-1H-pyrazolo[4,3-c]pyridine-3-carboxamide], with 164 nM; and `CCC(=O)N1CCN(C(=O)c2ccc(N3CCc4c(c(C(=O)NCc5ccc(NC(=O)N(C)C)cc5)nn4C(C)C)C3)nc2)CC1` [Example 196, N-(4-(3,3-dimethylureido)benzyl)-1-isopropyl-5-(5-(4-propionylpiperazine-1-carbonyl)pyridin-2-yl)-4,5,6,7-tetrahydro-1H-pyrazolo[4,3-c]pyridine-3-carboxamide], with 90 nM; and `CC(C)n1nc(C(=O)NCc2ccc(NC(=O)N(C)C)cc2)c2c1CCN(c1ccc(C(=O)N3CCC[C@H]3C(N)=O)cn1)C2` [Example 197, (S)-5-(5-(2-carbamoylpyrrolidine-1-carbonyl)pyridin-2-yl)-N-(4-(3,3-dimethylureido)benzyl)-1-isopropyl-4,5,6,7-tetrahydro-1H-pyrazolo[4,3-c]pyridine-3-carboxamide], with 197 nM.
In the case of `COC1CCN(C(=O)c2ccc(N3CCc4c(c(C(=O)NCc5ccc(NC(=O)N(C)C)cc5)nn4C(C)C)C3)nc2)CC1` [Example 199, N-(4-(3,3-dimethylureido)benzyl)-1-isopropyl-5-(5-(4-methoxypiperidine-1-carbonyl)pyridin-2-yl)-4,5,6,7-tetrahydro-1H-pyrazolo[4,3-c]pyridine-3-carboxamide], the EC50 was 125 nM.
Still for that read-out and setting: with `CC(=O)N1CCCN(C(=O)c2ccc(N3CCc4c(c(C(=O)NCc5ccc(NC(=O)N(C)C)cc5)nn4C(C)C)C3)nc2)CC1` [Example 200, 5-(5-(4-acetyl-1,4-diazepane-1-carbonyl)pyridin-2-yl)-N-(4-(3,3-dimethylureido)benzyl)-1-isopropyl-4,5,6,7-tetrahydro-1H-pyrazolo[4,3-c]pyridine-3-carboxamide] the figure was 363 nM; with `CCO[C@H]1CCN(C(=O)c2ccc(N3CCc4c(c(C(=O)NCc5ccc(NC(=O)N(C)C)cc5)nn4C(C)C)C3)nc2)C1` [Example 201, (S)-N-(4-(3,3-dimethylureido)benzyl)-5-(5-(3-ethoxypyrrolidine-1-carbonyl)pyridin-2-yl)-1-isopropyl-4,5,6,7-tetrahydro-1H-pyrazolo[4,3-c]pyridine-3-carboxamide], 343 nM; with `COc1nc(N2CCc3c(c(C(=O)NCc4ccc(NC(=O)N(C)C)cc4)nn3C(C)C)C2)ccc1[C@]1(C)CNC(=O)C1` [Example 202, (R)-N-(4-(3,3-dimethylureido)benzyl)-1-isopropyl-5-(6-methoxy-5-(3-methyl-5-oxopyrrolidin-3-yl)pyridin-2-yl)-4,5,6,7-tetrahydro-1H-pyrazolo[4,3-c]pyridine-3-carboxamide], 8080 nM.
On to `CC(C)n1nc(C(=O)NCc2ccc(NC(=O)N(C)C)cc2)c2c1CCN(c1ccc(C(=O)N3CCOCC3)cn1)C2` [Example 206, N-(4-(3,3-dimethylureido)benzyl)-1-isopropyl-5-(5-(morpholine-4-carbonyl)pyridin-2-yl)-4,5,6,7-tetrahydro-1H-pyrazolo[4,3-c]pyridine-3-carboxamide], for which the EC50 was found to be 97 nM.
Same read-out and setting: with `CC(C)n1nc(C(=O)NCc2ccc(NC(=O)N(C)C)cc2)c2c1CCN(c1ccc(C(=O)N3C[C@@H](C)O[C@@H](C)C3)cn1)C2` [Example 207, 5-(5-((2R,6S)-2,6-dimethylmorpholine-4-carbonyl)pyridin-2-yl)-N-(4-(3,3-dimethylureido)benzyl)-1-isopropyl-4,5,6,7-tetrahydro-1H-pyrazolo[4,3-c]pyridine-3-carboxamide] the figure was 272 nM.

Still in this assay, the particulars now being: STAT6 NanoLuc luciferase reporter, IL-13 stimulated HaCaT keratinocyte cells; read-out: Reporter EC50.
For the compound `CC(C)n1nc(C(=O)NCc2ccc(NC(=O)N3CCC(CC#N)CC3)cc2)c2c1CCN(c1ccc(C(=O)N(C)C)cn1)C2` [Example 149, N-(4-(4-(cyanomethyl)piperidine-1-carboxamido)benzyl)-5-(5-(dimethylcarbamoyl)pyridin-2-yl)-1-isopropyl-4,5,6,7-tetrahydro-1H-pyrazolo[4,3-c]pyridine-3-carboxamide], the concentration for a half-maximal effect (EC50) came to 5 nM.
On the same count and under the same terms, with `CC(C)n1nc(C(=O)NCc2ccc(NC(=O)N3CCCC(N(C)C)C3)cc2)c2c1CCN(c1ccc(C(=O)N(C)C)cn1)C2` (centres unmarked) [Example 151, N-(4-(3-(dimethylamino)piperidine-1-carboxamido)benzyl)-5-(5-(dimethylcarbamoyl)pyridin-2-yl)-1-isopropyl-4,5,6,7-tetrahydro-1H-pyrazolo[4,3-c]pyridine-3-carboxamide] the figure was 9 nM.
